Assay results from US5760036A, “Aminediol protease inhibitors” (E. R. Squibb & Sons, Inc., priority 1995, dated 1998).
pIC50: −log10 of the molar value. Like-named read-outs stand apart in the source and are kept apart here.

Assays:
HIV protease = biological target: T1, HIV protease (Human immunodeficiency virus type 1 group M subtype B, UniProt P04585); experiment: HIV Protease Assay; type: biochemical
T1 construct: and purified protease
Summary of the method: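 At a single final concentration of 10 μM (4% DMSO), inhibitors were added to a 30-minute, 37° C reaction of purified enzyme with 450 μM H2N-Val-Ser-Gln-Asn-(β-naphthyl-alanine)-Pro-Val-Ile-OH at pH 5.5 (sodium acetate, BSA). Hydrolysis was quantified by reverse-phase HPLC with 220 nm detection after acid quench.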

[1] = test system: RF strain of HIV (CEM-SS cells); experiment: Cell Culture Anti-HIV Activity (cell viability, formazan); type: cell-based; conditions: Human immunodeficiency virus 1, CEM-SS, 144 h; for pIC50: CEM-SS cells, RF strain of HIV, multiplicity of infection 0.04, 6 days at 37° C., 450 nm, read-out: HIV (CEM Cells) IC50
Summary of the method: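 Half-log compound dilutions added to CEM-SS cells (5000/well) carrying HIV RF (MOI 0.04), 6 days, 37° C. Cell protection measured as formazan from tetrazolium, A450. IC50: drug level restoring infected-cell formazan to 50% of the uninfected untreated control.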

[2] = pH 5.5, 10 μM inhibitor, 4% DMSO, 450 μM substrate, pH 5.5, 30 minutes at 37° C., RP-HPLC, read-out: HIV Protease % Inhibition at 10 μM

Structure (SMILES) | inhibition at 10 µM (HIV protease; pH 5.5, read-out: HIV Protease % Inhibition at 10 μM, 10 μM inhibitor, 4% DMSO, 450 μM substrate, pH 5.5, 30 minutes at 37° C., RP-HPLC) [%] | IC50 ([1]; read-out: HIV (CEM Cells) IC50 (μM)) [µM] | inhibition at 10 µM (HIV protease; [2]) [%] | pIC50 [1] | inhibition at 10 µM (HIV protease; pH 5.5, read-out: HIV Protease % Inhibition at 10 μM) [%]
CC(C)(C)OC(=O)N[C@@H](Cc1ccccc1)[C@H](O)CN(C[C@@H](O)[C@H](Cc1ccccc1)NC(=O)OC(C)(C)CO)C(=O)OCC[Si](C)(C)C [Compound 164, [R-(R*,S*)]-[[[(Trimethylsilyl)-ethoxy]carbonyl]iminobis[2-hydroxy-1-(phenylmethyl)-3,1-propanediyl]1biscarbamic acid, 1,1-di-methylethyl 2-hydroxy-1,1-dimethylethyl ester] | 99 | 0.04 | – | – | –
CC(C)(C)OC(=O)N[C@@H](Cc1ccccc1)[C@H](O)CNC[C@@H](O)[C@H](Cc1ccc(OCCN2CCOCC2)cc1)NC(=O)OC(C)(C)C [Compound 175, [1S-[1R*,2S*(2S*,3R*)]]-[3-[[3-[[(1,1-Dimethylethoxy)carbonyl]amino]-2-hydroxy-4-(4-[2-(4-morpholinyl)ethoxyl-phenyl]butyl]amino]-2-hydroxy-1-(phenylmethyl)propyl]carbamic acid, 1,1-dimethylethyl ester] | – | – | 99 | 7.52 | –
CC(C)(C)OC(=O)N[C@@H](Cc1ccccc1)[C@H](O)CNC[C@@H](O)[C@H](Cc1ccccc1)NC(=O)C(C)(O)C(C)(C)CO (single isomer, unassigned; isomer a) [Compound 356, [1S-[1R*,2S*(2S*,3R*)]]-[3-[3-[2,4-Dihydroxy-2,3,3-trimethyl-1-oxobutyl)amino]-2-hydroxy-4-phenylbutyl]amino]-2-hydroxy-1-(phenylmethyl)propyl]carbamic acid, 1,1-dimethylethyl ester, isomer A] | – | – | – | 6.92 | 99
CC(C)(C)OC(=O)N[C@@H](Cc1ccccc1)[C@H](O)CNC[C@@H](O)[C@H](CCc1ccccc1)NC(=O)OCc1ccccc1 [Compound 24, [1S-[1R*,2S*((2S*,3R*)]]-[3-[[3-[[(1,1-Dimethylethoxy)carbonyl]amino-2-hydroxy-4-phenylbutyl]amino]-2-hydroxy-1-(2-phenylethyl)propyl]carbamic acid, phenylmethyl ester] | – | – | 78 | 5.35 | –
CC(C)(C)OC(=O)N[C@@H](Cc1ccccc1)[C@H](O)CNC[C@@H](O)[C@H](Cc1ccc(OCCO)cc1)NC(=O)OC(C)(C)C [Compound 209, [1S-[1R*,2S*(2S*,3R*)]]-[3[[-3-[[(1,1-Dimethylethoxy)carbonyl]amino]-2-hydroxy-4-[4-(2-hydroxyethoxy)phenyl]butyl]amino]-2-hydroxy-1-(phenylmethyl)propyl]-carbamic acid, 1,1-dimethylethyl ester] | – | – | 99 | 7.52 | –
CC(C)[C@H](NC(=O)CO)C(=O)N[C@@H](Cc1ccccc1)[C@H](O)CNC[C@@H](O)[C@H](Cc1ccccc1)NC(=O)OC(C)(C)C (relative stereo) [Compound 259, [1R*, 2S* (2S*, 3R*)]-N-[3-[[3-[[(1,1-Dimethylethoxy)carbonyl]amino]-2-hydroxy-4-phenylbutyl]amino]-2-hydroxy-1-(phenylmetyl)propyl]-N^2-(hydroxyacetyl)-L-valinamide] | – | – | 99 | 5.30 | –
CC(C)(C)OC(=O)N[C@@H](Cc1ccccc1)[C@H](O)CNC[C@@H](O)[C@H](Cc1ccccc1)NC(=O)O[C@H]1COC[C@@H]1O [Compound 316, [1S-(1R*,2S*), (3S-trans)]-[Iminobis[2-hydroxy-1-(phenylmethyl)-3,1-propanediyl]]bis[carbamic acid], 4-hydroxy-3-tetrahydrofuranyl 1,1-dimethylethyl ester] | – | – | 97 | 6.21 | –
CC(C)(C)OC(=O)N[C@@H](Cc1ccccc1)[C@H](O)CNC[C@@H](O)[C@H](Cc1ccccc1)NC(=O)OC1CCc2ccccc21 (stereo partly drawn) [Compound 144, [1S-(1R*,2S*)]-[Iminobis[2-hydroxy-1-(phenylmethyl)-3,1-propanediyl)]-bis[carbamic acid], 1,1-dimethylethyl-2,3-dihydro-1H-inden-1-yl ester] | – | – | 88 | 6.00 | –
COC(=O)N[C@H](C(=O)N[C@@H](Cc1ccc(OCCc2ccccn2)cc1)[C@H](O)CNC[C@@H](O)[C@H](Cc1ccccc1)NC(=O)OC(C)(C)C)C(C)(C)C (relative stereo) [Compound 297, [1R*,2S*(2S*,3R*)]-N-[3-[[3-[[(1,1-Dimethylethoxy)carbonyl]amino]-2-hydroxy-4-phenylbutyl]amino]-2-hydroxy-1-[[4-[r2-(2-pyridinyl)ethoxy]phenyl]methyl]propyl]-N^2-(2-methoxycarbonyl)-3-methyl-L-valinamide] | – | – | 100 | 7.30 | –
CC(C)(C)OC(=O)N[C@@H](Cc1ccccc1)[C@H](O)CNC[C@@H](O)[C@H](Cc1ccncc1)NC(=O)OC(C)(C)C [Compound 30, [1S-[1R*,2S*(2S*,3R*)]]-[3-[[3-[[(1,1-Dimethylethoxy)-carbonyl]amino]-2-hydroxy-4-phenylbutyl]amino]-2-hydroxy-1-(4-pyridinylmethyl)propyl]carbamic acid, 1,1-dimethylethyl ester] | – | – | 97 | 6.30 | –
Cc1ccc(N(C)CCOc2ccc(C[C@H](NC(=O)OC(C)(C)C)[C@H](O)CNC[C@@H](O)[C@H](Cc3ccccc3)NC(=O)OC(C)(C)C)cc2)cc1 [Compound 217, [1S-[1R*,2S*(2S*,3R*)]]-[3-[[3-[[(1,1-Dimethylethoxy)carbonyl]amino]-2-hydroxy-4-[4-[2-methyl(4-methylphen-yl)amino]-ethoxyl]phenyl]butyl]amino]-2-hydroxy-1-(phenylmethyl) propyl]carbamic acid, 1,1-dimethylethyl ester] | – | – | 100 | 6.32 | –
CC(C)[C@H](NC(=O)OC(C)(C)C)C(=O)N[C@@H](Cc1ccccc1)[C@H](O)CNC[C@@H](O)[C@H](Cc1ccccc1)NC(=O)[C@@H](NC(=O)OC(C)(C)C)C(C)C [Compound 34, [S-(1R*,2S*)]-N,N'-[Iminobis[2-hydroxy-1-(phenylmethyl)-3,1-propanediyl]]bis[N^2-[(1,1-dimethylethoxy)carbonyl]-L-valinamide]] | – | – | 20 | < 5.05 | –
CC(C)(C)OC(=O)N[C@@H](Cc1ccccc1)[C@H](O)CNC[C@@H](O)[C@H](Cc1ccccc1)NC(=O)OCc1cccnc1 [Compound 256, [R-(R*,S*)]-[Iminobis[2-hydroxy-1-(phenylmethyl)-3,1-propanediyl)]biscarbamic acid. 1,1-dimethylethyl-3-pyridinylmethyl ester] | – | – | 88 | 5.82 | –
CC(C)[C@H](NC(=O)c1nc2ccccc2[nH]1)C(=O)N[C@@H](Cc1ccccc1)[C@H](O)CNC[C@@H](O)[C@H](Cc1ccccc1)NC(=O)OC(C)(C)C [Compound 101, [S-[1R*,2S*(2S*,3R*)]-N-[3-[[3-[[(1,1-Dimethylethoxy)carbonyl]amino]-2-hydroxy-4-phenylbutyl]amino]-2-hydroxy-1-(phenylmethyl)propyl]-N^2-[(1H-benzimidazol-2-yl)-carbonyl]-L-valinamide]] | – | – | 99 | 6.85 | –
CC(C)(C)OC(=O)N[C@@H](Cc1ccccc1)[C@H](O)CNC[C@@H](O)[C@H](Cc1ccccc1)NC(=O)C(O)C(F)(F)F (single isomer, unassigned; isomer a) [Compound 271, [1S-[1R*,2S*(2S*,3R*)]]-[2-Hydroxy-1-(phenylmethyl)-3-[[2-hydroxy-4-phenyl-3-[(3,3,3-trifluoro-2-hydroxy-1-oxopropyl)amino]butyl]amino]-propyl]carbamic acid, 1,1-dimethylethyl ester (isomer A)] | – | – | 99 | 7.22 | –
C[C@H](O)C(C)(C)OC(=O)N[C@@H](Cc1ccccc1)[C@H](O)CNC[C@@H](O)[C@H](Cc1ccccc1)NC(=O)OC(C)(C)C [Compound 232, [1S-(1R*,2S*),(R*)]-[Iminobis[2-hydroxy-1-(phenylmethyl)-3,1-propanediyl]]biscarbamic acid, 1,1-dimethylethyl 2-hydroxy-1,1-dimethylpropyl ester] | – | – | 99 | 7.30 | –
C[C@@H](O)[C@H](NC(=O)OCc1ccccc1)C(=O)N[C@@H](Cc1ccccc1)[C@H](O)CNC[C@@H](O)[C@H](Cc1ccccc1)NC(=O)OC(C)(C)C [Compound 100, [S-[1R*,2S*(2S*,3R*)]-N-[3-[[3-[[(1,1-Dimethylethoxy)carbonyl]amino]-2-hydroxy-4-phenylbutyl]amino]-2-hydroxy-1-(phenylmethyl)-propyl]-N^2 [(phenylmethoxy)carbonyl]-L-threoninamide] | – | – | 99 | 6.64 | –
CC(C)(C)OC(=O)N[C@@H](Cc1ccccc1)[C@H](O)CNC[C@@H](O)[C@H](Cc1ccccc1)NC(=O)C(C)(O)C(F)(F)F (single isomer, unassigned; isomer a) [Compound 293, [1S-[1R*,2S*(2S*,3R*)]]-[2-Hydroxy-3-[2-hydroxy-1-oxo-2-(trifluoromethyl)-propyl]amino]-4-phenylbutyl]amino]-1-(phenylmethyl)propyl]carbamic acid, 1,1-dimethylethylester (isomer A)] | – | – | 99 | 7.52 | –
